# pIC50: −log10 of the molar value.
# Assays:
# Assay in all cases: fluorescence polarization competition with fluorescent BOP probe
# Type in all cases: binding
# [1] = target: T1, integrin α3β1 (Homo sapiens, UniProt P05556+P26006)
# T1 construct: gene ITGA3; purchased recombinant heterodimer (R&D Systems), extracellular domains
# [2] = target: T2, integrin α2β1 ectodomain (Homo sapiens, UniProt P05556+P17301)
# T2 construct: gene ITGA2; ectodomain heterodimer; alpha with ACID coil and C-terminal StrepII tag, beta with BASE coil and His tag; Expi293 cells, separate pcDNA3.4 vectors
# [3] = target: T3, integrin α1β1 ectodomain (Homo sapiens, UniProt P05556+P56199)
# T3 construct: gene ITGA1; ectodomain heterodimer; alpha with ACID coil and C-terminal StrepII tag, beta with BASE coil and His tag; Expi293 cells, separate pcDNA3.4 vectors
# [4] = target: T4, integrin α11β1 ectodomain (Homo sapiens, UniProt P05556+Q9UKX5)
# T4 construct: gene ITGA11; ectodomain heterodimer; continuous transcript alpha-GGGS-P2A-beta; alpha with ACID coil and C-terminal StrepII tag, beta with BASE coil and His tag; Expi293 cells; beta1 borders printed for the separate vector
# [5] = target: T5, integrin α10β1 ectodomain (Homo sapiens, UniProt O75578+P05556)
# T5 construct: gene ITGA10; ectodomain heterodimer; continuous transcript alpha-GGGS-P2A-beta; alpha with ACID coil and C-terminal StrepII tag, beta with BASE coil and His tag; Expi293 cells; beta1 borders printed for the separate vector
# T5 sequence (O75578 23-1120): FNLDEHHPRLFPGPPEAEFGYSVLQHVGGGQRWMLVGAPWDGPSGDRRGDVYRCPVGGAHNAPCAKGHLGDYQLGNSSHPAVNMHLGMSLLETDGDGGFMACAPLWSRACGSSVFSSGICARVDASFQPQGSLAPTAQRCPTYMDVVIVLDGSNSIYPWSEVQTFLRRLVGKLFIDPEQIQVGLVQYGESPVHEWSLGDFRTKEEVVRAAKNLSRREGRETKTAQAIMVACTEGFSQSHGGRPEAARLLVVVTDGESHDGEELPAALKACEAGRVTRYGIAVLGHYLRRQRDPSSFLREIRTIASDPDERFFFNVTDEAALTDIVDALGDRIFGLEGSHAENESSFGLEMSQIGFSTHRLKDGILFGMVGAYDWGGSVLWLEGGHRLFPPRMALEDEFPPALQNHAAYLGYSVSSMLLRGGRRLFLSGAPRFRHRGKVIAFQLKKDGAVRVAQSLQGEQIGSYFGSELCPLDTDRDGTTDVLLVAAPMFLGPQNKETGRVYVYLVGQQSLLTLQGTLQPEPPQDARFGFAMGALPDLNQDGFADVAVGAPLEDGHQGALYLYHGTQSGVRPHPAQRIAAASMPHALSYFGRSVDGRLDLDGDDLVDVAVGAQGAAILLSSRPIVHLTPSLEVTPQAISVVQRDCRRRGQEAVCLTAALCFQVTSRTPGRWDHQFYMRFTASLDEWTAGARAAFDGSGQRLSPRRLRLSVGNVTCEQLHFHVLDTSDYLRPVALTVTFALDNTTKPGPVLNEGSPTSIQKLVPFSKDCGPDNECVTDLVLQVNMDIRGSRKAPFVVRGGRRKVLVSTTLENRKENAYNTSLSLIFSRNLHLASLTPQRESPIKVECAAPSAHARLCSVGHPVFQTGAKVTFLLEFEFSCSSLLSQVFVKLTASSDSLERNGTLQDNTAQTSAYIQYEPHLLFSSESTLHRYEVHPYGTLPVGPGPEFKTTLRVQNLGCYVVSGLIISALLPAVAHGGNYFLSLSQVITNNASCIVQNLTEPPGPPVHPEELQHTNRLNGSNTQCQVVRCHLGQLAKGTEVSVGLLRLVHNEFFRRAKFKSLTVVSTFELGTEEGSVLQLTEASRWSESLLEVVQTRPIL
# T5 sequence (P05556 21-728): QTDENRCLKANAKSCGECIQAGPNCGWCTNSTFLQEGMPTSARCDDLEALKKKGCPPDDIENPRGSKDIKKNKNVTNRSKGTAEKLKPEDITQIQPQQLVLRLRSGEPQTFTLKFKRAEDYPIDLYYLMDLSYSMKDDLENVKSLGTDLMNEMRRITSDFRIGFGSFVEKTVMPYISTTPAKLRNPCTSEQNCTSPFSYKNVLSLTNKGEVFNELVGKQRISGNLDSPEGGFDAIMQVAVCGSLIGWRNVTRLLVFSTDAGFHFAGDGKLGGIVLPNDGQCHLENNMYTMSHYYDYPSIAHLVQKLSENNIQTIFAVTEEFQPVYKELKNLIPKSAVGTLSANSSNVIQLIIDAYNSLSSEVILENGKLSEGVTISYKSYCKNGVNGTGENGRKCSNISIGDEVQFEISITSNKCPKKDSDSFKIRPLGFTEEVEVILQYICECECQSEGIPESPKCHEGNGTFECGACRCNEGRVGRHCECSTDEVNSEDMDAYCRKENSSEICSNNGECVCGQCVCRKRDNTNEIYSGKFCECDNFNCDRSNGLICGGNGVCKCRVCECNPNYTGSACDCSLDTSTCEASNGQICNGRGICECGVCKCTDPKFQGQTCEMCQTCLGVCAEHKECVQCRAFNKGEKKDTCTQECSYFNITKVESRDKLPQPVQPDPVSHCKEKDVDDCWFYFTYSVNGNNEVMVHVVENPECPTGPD
# T1 sequence (P26006 33-872 limits assumed): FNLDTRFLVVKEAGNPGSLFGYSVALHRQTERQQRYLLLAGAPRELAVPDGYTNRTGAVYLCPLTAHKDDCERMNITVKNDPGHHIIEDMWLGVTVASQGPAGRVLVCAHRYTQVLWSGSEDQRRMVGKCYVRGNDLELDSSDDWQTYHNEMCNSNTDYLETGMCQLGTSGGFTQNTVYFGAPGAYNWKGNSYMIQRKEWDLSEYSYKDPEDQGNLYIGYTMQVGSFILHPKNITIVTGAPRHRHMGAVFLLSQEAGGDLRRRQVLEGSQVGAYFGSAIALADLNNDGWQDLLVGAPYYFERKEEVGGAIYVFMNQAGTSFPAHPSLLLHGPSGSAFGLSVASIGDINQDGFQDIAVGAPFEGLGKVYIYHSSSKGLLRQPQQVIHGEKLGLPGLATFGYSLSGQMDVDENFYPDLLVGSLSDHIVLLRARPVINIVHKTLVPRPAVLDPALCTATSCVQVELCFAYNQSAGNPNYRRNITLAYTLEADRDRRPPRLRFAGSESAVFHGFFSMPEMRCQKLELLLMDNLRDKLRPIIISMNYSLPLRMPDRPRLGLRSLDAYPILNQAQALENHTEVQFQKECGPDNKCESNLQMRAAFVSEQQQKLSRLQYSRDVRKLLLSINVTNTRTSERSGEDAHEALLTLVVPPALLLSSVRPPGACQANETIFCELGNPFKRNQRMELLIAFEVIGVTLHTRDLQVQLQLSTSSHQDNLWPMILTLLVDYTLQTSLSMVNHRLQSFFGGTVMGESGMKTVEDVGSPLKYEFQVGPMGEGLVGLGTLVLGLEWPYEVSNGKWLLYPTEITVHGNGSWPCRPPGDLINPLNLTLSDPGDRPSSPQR
# T1 sequence (P26006 876-991 limits assumed): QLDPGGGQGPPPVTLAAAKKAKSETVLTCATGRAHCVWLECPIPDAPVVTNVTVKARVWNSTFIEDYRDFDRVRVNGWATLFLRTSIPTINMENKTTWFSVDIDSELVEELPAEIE
# T1 sequence (P05556 21-728 limits assumed): as the sequence (P05556 21-728) above
# T4 sequence (Q9UKX5 23-1139): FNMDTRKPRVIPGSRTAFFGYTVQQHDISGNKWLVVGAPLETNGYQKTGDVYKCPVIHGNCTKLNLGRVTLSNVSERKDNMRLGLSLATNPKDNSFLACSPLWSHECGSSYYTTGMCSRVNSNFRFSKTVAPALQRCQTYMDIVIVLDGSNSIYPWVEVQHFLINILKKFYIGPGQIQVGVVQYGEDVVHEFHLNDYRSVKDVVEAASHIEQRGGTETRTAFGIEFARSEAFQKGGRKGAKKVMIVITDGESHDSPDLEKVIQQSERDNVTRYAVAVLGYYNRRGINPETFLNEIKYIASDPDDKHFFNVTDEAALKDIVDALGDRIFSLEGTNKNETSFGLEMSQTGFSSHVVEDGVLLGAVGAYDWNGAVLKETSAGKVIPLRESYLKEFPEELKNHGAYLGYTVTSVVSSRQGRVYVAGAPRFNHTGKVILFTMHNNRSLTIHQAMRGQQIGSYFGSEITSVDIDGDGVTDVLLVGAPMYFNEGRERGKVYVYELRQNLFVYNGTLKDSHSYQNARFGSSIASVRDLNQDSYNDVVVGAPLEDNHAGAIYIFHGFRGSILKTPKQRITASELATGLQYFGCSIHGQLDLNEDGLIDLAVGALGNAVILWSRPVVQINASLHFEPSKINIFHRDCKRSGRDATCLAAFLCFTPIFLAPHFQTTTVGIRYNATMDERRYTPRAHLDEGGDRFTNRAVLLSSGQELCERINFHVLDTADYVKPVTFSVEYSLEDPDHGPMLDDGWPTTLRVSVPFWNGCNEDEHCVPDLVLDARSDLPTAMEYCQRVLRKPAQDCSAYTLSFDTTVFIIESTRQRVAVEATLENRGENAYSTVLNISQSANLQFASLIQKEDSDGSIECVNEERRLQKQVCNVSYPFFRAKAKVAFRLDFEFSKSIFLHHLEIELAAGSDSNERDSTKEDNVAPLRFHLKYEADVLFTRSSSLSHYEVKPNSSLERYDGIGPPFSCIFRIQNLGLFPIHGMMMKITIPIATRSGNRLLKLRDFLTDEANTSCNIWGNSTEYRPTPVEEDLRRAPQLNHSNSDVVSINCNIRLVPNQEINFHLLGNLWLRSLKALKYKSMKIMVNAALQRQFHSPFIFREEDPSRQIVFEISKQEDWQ
# T4 sequence (P05556 21-728): as the sequence (P05556 21-728) above
structure (smiles),measurement,setting,value
"O=C(O)[C@H](Cc1ccc(OC(=O)N2CCCC2)cc1)NC(=O)[C@@H]1CCCN1S(=O)(=O)c1ccccc1 [BOP, N-(Benzenesulfonyl)-L-prolyl-L-O-(1-pyrrolidinylcarbonyl)tyrosine]",pIC50,[1],7.51
same,pIC50,[2],7.79
same,pIC50,[3],7.09
same,pIC50,[4],6.93
same,pIC50,[5],7.60

# From paper PMC10404678, “A recombinant technique for mapping functional sites of heterotrimeric collagen helices: Collagen IV CB3 fragment as a prototype for integrin binding” (The Journal of Biological Chemistry, 2023)
